The results in this text go back to US20080300258A1, “ANHYDROUS CIPROFLOXACIN HYDROCHLORIDE” (priority 2007, published 2008).

For the series the following is noted: eight weeks of storage at 40 degrees C., relative humidity 75%.

On to `O=C(O)c1cn(C2CC2)c2cc(N3CCNCC3)c(F)cc2c1=O` [1-cyclopropyl-6-fluoro-1,4-dihydro-4-oxo-7-(1-piperazinyl)-3-quinolinecarboxylic acid], for which the decomposition on storage entry is reported as “no significant decomposition was observed” and the “water intake on storage” value is “No water intake was observed”.
